{"source": "the NIST ThermoML archive (doi:10.1021/je050060q)", "conditions": "Liquid; for mass density: Pycnometric method", "note": "Numbers after ± are expanded uncertainties.", "data": [{"smiles": "CCCCCC", "note": "[hexane]", "values": [{"measurement": "speed of sound", "setting": "293.15 K", "result": "1098 ± 3", "unit": "m/s"}, {"measurement": "mass density", "setting": "293.15 K", "result": "659.44 ± 0.16", "unit": "kg/m3"}, {"measurement": "speed of sound", "setting": "298.15 K", "result": "1076 ± 3", "unit": "m/s"}, {"measurement": "mass density", "setting": "298.15 K", "result": "654.93 ± 0.17", "unit": "kg/m3"}, {"measurement": "speed of sound", "setting": "303.15 K", "result": "1054 ± 3", "unit": "m/s"}, {"measurement": "mass density", "setting": "303.15 K", "result": "650.36 ± 0.18", "unit": "kg/m3"}, {"measurement": "speed of sound", "setting": "308.15 K", "result": "1032 ± 3", "unit": "m/s"}, {"measurement": "mass density", "setting": "308.15 K", "result": "645.74 ± 0.19", "unit": "kg/m3"}, {"measurement": "speed of sound", "setting": "313.15 K", "result": "1010 ± 3", "unit": "m/s"}, {"measurement": "mass density", "setting": "313.15 K", "result": "641.08 ± 0.19", "unit": "kg/m3"}, {"measurement": "speed of sound", "setting": "318.15 K", "result": "988 ± 3", "unit": "m/s"}, {"measurement": "mass density", "setting": "318.15 K", "result": "636.37 ± 0.2", "unit": "kg/m3"}, {"measurement": "speed of sound", "setting": "323.15 K", "result": "966 ± 3", "unit": "m/s"}, {"measurement": "mass density", "setting": "323.15 K", "result": "631.61 ± 0.21", "unit": "kg/m3"}, {"measurement": "speed of sound", "setting": "328.15 K", "result": "944 ± 3", "unit": "m/s"}, {"measurement": "mass density", "setting": "328.15 K", "result": "626.81 ± 0.22", "unit": "kg/m3"}, {"measurement": "speed of sound", "setting": "333.15 K", "result": "921 ± 3", "unit": "m/s"}, {"measurement": "mass density", "setting": "333.15 K", "result": "621.95 ± 0.23", "unit": "kg/m3"}, {"measurement": "speed of sound", "setting": "338.15 K", "result": "900 ± 3", "unit": "m/s"}, {"measurement": "speed of sound", "setting": "343.15 K", "result": "878 ± 3", "unit": "m/s"}, {"measurement": "speed of sound", "setting": "348.15 K", "result": "856 ± 3", "unit": "m/s"}, {"measurement": "speed of sound", "setting": "353.15 K", "result": "834 ± 3", "unit": "m/s"}, {"measurement": "speed of sound", "setting": "358.15 K", "result": "812 ± 3", "unit": "m/s"}, {"measurement": "speed of sound", "setting": "363.15 K", "result": "790 ± 3", "unit": "m/s"}, {"measurement": "speed of sound", "setting": "368.15 K", "result": "768 ± 3", "unit": "m/s"}, {"measurement": "speed of sound", "setting": "373.15 K", "result": "747 ± 3", "unit": "m/s"}]}, {"smiles": "CCCCCCCCCCCCCCCC", "note": "[hexadecane]", "values": [{"measurement": "speed of sound", "setting": "293.15 K", "result": "1357 ± 3", "unit": "m/s"}, {"measurement": "mass density", "setting": "293.15 K", "result": "773.38 ± 0.25", "unit": "kg/m3"}, {"measurement": "speed of sound", "setting": "298.15 K", "result": "1338 ± 3", "unit": "m/s"}, {"measurement": "mass density", "setting": "298.15 K", "result": "769.97 ± 0.26", "unit": "kg/m3"}, {"measurement": "mass density", "setting": "303.15 K", "result": "766.55 ± 0.27", "unit": "kg/m3"}, {"measurement": "speed of sound", "setting": "308.15 K", "result": "1301 ± 3", "unit": "m/s"}, {"measurement": "mass density", "setting": "308.15 K", "result": "763.12 ± 0.27", "unit": "kg/m3"}, {"measurement": "speed of sound", "setting": "313.15 K", "result": "1283 ± 3", "unit": "m/s"}, {"measurement": "mass density", "setting": "313.15 K", "result": "759.68 ± 0.28", "unit": "kg/m3"}, {"measurement": "speed of sound", "setting": "318.15 K", "result": "1265 ± 3", "unit": "m/s"}, {"measurement": "mass density", "setting": "318.15 K", "result": "756.24 ± 0.29", "unit": "kg/m3"}, {"measurement": "speed of sound", "setting": "323.15 K", "result": "1246 ± 3", "unit": "m/s"}, {"measurement": "mass density", "setting": "323.15 K", "result": "752.79 ± 0.29", "unit": "kg/m3"}, {"measurement": "speed of sound", "setting": "328.15 K", "result": "1228 ± 3", "unit": "m/s"}, {"measurement": "mass density", "setting": "328.15 K", "result": "749.33 ± 0.3", "unit": "kg/m3"}, {"measurement": "speed of sound", "setting": "333.15 K", "result": "1211 ± 3", "unit": "m/s"}, {"measurement": "mass density", "setting": "333.15 K", "result": "745.86 ± 0.31", "unit": "kg/m3"}, {"measurement": "speed of sound", "setting": "338.15 K", "result": "1193 ± 3", "unit": "m/s"}, {"measurement": "mass density", "setting": "338.15 K", "result": "742.39 ± 0.32", "unit": "kg/m3"}, {"measurement": "speed of sound", "setting": "343.15 K", "result": "1176 ± 3", "unit": "m/s"}, {"measurement": "mass density", "setting": "343.15 K", "result": "738.91 ± 0.33", "unit": "kg/m3"}, {"measurement": "speed of sound", "setting": "348.15 K", "result": "1158 ± 3", "unit": "m/s"}, {"measurement": "mass density", "setting": "348.15 K", "result": "735.42 ± 0.33", "unit": "kg/m3"}, {"measurement": "speed of sound", "setting": "353.15 K", "result": "1141 ± 3", "unit": "m/s"}, {"measurement": "mass density", "setting": "353.15 K", "result": "731.93 ± 0.34", "unit": "kg/m3"}, {"measurement": "speed of sound", "setting": "358.15 K", "result": "1124 ± 3", "unit": "m/s"}, {"measurement": "mass density", "setting": "358.15 K", "result": "728.43 ± 0.35", "unit": "kg/m3"}, {"measurement": "speed of sound", "setting": "363.15 K", "result": "1107 ± 3", "unit": "m/s"}, {"measurement": "mass density", "setting": "363.15 K", "result": "724.92 ± 0.36", "unit": "kg/m3"}, {"measurement": "speed of sound", "setting": "368.15 K", "result": "1090 ± 3", "unit": "m/s"}, {"measurement": "mass density", "setting": "368.15 K", "result": "721.4 ± 0.37", "unit": "kg/m3"}, {"measurement": "speed of sound", "setting": "373.15 K", "result": "1074 ± 3", "unit": "m/s"}, {"measurement": "mass density", "setting": "373.15 K", "result": "717.88 ± 0.38", "unit": "kg/m3"}]}]}
